Calls of active or inactive are those of the source. The calls are words filed in the database; no cut-off is given here.
Key:
[1] = system: Panel NCI-60 (60 carcinoma cell lines); assay: Cytotoxicity against human Panel NCI-60 (60 carcinoma cell lines) assessed as cell growth at 10 uM after 48 hrs by sulforhodamine B assay relative to control; format: functional; conditions: read-out: Activity
TK-10 = assay: Cytotoxicity against human TK-10 cells assessed as cell growth at 10 uM after 48 hrs by sulforhodamine B assay relative to control; format: functional; conditions: read-out: Activity
SR = assay: Cytotoxicity against human SR cells assessed as cell growth at 10 uM after 48 hrs by sulforhodamine B assay relative to control; format: functional; conditions: read-out: Activity
MOLT-4 = assay: Cytotoxicity against human MOLT-4 cells assessed as cell growth at 10 uM after 48 hrs by sulforhodamine B assay relative to control; format: functional; conditions: read-out: Activity
COLO 205 = assay: Cytotoxicity against human COLO 205 cells assessed as cell growth at 10 uM after 48 hrs by sulforhodamine B assay relative to control; format: functional; conditions: read-out: Activity
SK-OV-3 = assay: Cytotoxicity against human SK-OV-3 cells assessed as cell growth at 10 uM after 48 hrs by sulforhodamine B assay relative to control; format: functional; conditions: read-out: Activity
NCI/ADR-RES = assay: Cytotoxicity against human NCI/ADR-RES cells assessed as cell growth at 10 uM after 48 hrs by sulforhodamine B assay relative to control; format: functional; conditions: read-out: Activity
[2] = system: Panel NCI-60 (60 carcinoma cell lines); assay: Cytotoxicity against human Panel NCI-60 (60 carcinoma cell lines) assessed as cell growth inhibition measured after 48 hrs by sulforhodamine B assay; format: functional
leukaemia cell line = assay: Cytotoxicity against human leukaemia cell line assessed as cell growth inhibition measured after 48 hrs by sulforhodamine B assay; format: functional; conditions: for CC50: read-out: LC50 (the source's name)
[3] = (§1) Inhibition of porcine brain tubulin polymerization incubated for 60 mins by spectrophotometry; format: tissue-based, Sus scrofa
Sus scrofa = organism: Sus scrofa; assay: as §1; format: tissue-based

Row | SMILES | growth at 10 µM [1] [%] | GI50 (leukaemia cell line) [µM] | TGI (leukaemia cell line) [µM] | CC50 (leukaemia cell line) [µM] | other results
1 | Cc1ccc(NS(=O)(=O)c2ccc(-c3cnc(C4CC4)o3)cc2)cc1C(F)(F)F | 60.5 |  |  |  | 
2 | O=S(=O)(Nc1ccc2c(c1)OCO2)c1ccc(-c2cnc(C3CC3)o2)cc1 | 35.8 |  |  |  | 
3 | O=S(=O)(NCC(F)F)c1ccc(-c2cnc(C3CC3)o2)cc1 | 92.2 |  |  |  | growth at 10 µM (TK-10): 104%; growth at 10 µM (SR): 89.3%; growth at 10 µM (MOLT-4): 82.5%; growth at 10 µM (COLO 205): 94.5%; growth at 10 µM (SK-OV-3): 101%; growth at 10 µM (NCI/ADR-RES): 92.3%
4 | CN(c1ccc(F)cc1)S(=O)(=O)c1ccc(-c2cnc(C3CC3)o2)cc1 | 31.8 |  |  |  | GI50 [2]: 1.18 µM
5 | O=S(=O)(Nc1ccc(Cl)c(Cl)c1)c1ccc(-c2cnc(C3CC3)o2)cc1 | 25.3 | 0.416 | 62.1 | > 100 | IC50 [3]: < 0.08 µM
6 | O=S(=O)(Nc1ccc(I)cc1Cl)c1ccc(-c2cnc(C3CC3)o2)cc1 | 39.5 |  |  |  | 
7 | O=S(=O)(Nc1ccc(Cl)c(F)c1)c1ccc(-c2cnc(C3CC3)o2)cc1 | 23.8 | 0.38 | 63 | > 100 | 
8 | CN(c1ccc(Cl)cc1)S(=O)(=O)c1ccc(-c2cnc(C3CC3)o2)cc1 | 30.6 |  |  |  | 
9 | O=S(=O)(Nc1cc(F)cc(F)c1)c1ccc(-c2cnc(C3CC3)o2)cc1 | 35.4 | 2.14 | 80 | > 100 | 
10 | O=S(=O)(Nc1ccc(Br)c(Cl)c1)c1ccc(-c2cnc(C3CC3)o2)cc1 | 21.5 | 0.491 | 70.3 | > 100 | IC50 [3]: < 0.08 µM
11 | O=S(=O)(Nc1ccc(I)cc1)c1ccc(-c2cnc(C3CC3)o2)cc1 | 57.3 |  |  |  | 
12 | N#Cc1ccc(NS(=O)(=O)c2ccc(-c3cnc(C4CC4)o3)cc2)cc1 | 95.7 |  |  |  | 
13 | Cc1cc(Cl)cc(NS(=O)(=O)c2ccc(-c3cnc(C4CC4)o3)cc2)c1 | 31.6 | 0.175 | 7.04 | 84.9 | 
14 | Cc1ccc(NS(=O)(=O)c2ccc(-c3cnc(C4CC4)o3)cc2)cc1C | 22.8 | 0.42 | > 100 | > 100 | 
15 | O=S(=O)(Nc1ccc(C2CC2)cc1)c1ccc(-c2cnc(C3CC3)o2)cc1 | 63.4 |  |  |  | 
16 | CC(=O)c1ccc(NS(=O)(=O)c2ccc(-c3cnc(C4CC4)o3)cc2)cc1 | 93.5 |  |  |  | 
17 | O=S(=O)(c1ccc(-c2cnc(C3CC3)o2)cc1)N1CCOCC1 | 94.2 |  |  |  | growth at 10 µM (TK-10): 101%; growth at 10 µM (SR): 91.3%; growth at 10 µM (MOLT-4): 95.3%; growth at 10 µM (COLO 205): 95%; growth at 10 µM (SK-OV-3): 112%; growth at 10 µM (NCI/ADR-RES): 93.5%
18 | CN(c1ccc(Br)cc1)S(=O)(=O)c1ccc(-c2cnc(C3CC3)o2)cc1 | 31.4 |  |  |  | GI50 [2]: 3.92 µM
19 | Cc1cc(NS(=O)(=O)c2ccc(-c3cnc(C4CC4)o3)cc2)ccc1I | 35.9 |  |  |  | 
20 | O=S(=O)(Nc1ccccc1Cl)c1ccc(-c2cnc(C3CC3)o2)cc1 | 27.4 | 0.429 | 49.7 | > 100 | 
21 | COc1cc(NS(=O)(=O)c2ccc(-c3cnc(C4CC4)o3)cc2)ccc1F | 25.9 | 0.328 | 75.7 | > 100 | 
22 | O=S(=O)(Nc1cc(Cl)cc(Cl)c1)c1ccc(-c2cnc(C3CC3)o2)cc1 | 36.9 |  |  |  | 
23 | O=S(=O)(Nc1ccc(F)cc1)c1ccc(-c2cnc(C3CC3)o2)cc1 | 28.1 |  |  |  | growth at 10 µM (TK-10): 32.5%; growth at 10 µM (SR): 11.6%; growth at 10 µM (MOLT-4): 12.7%; growth at 10 µM (COLO 205): 20.2%; growth at 10 µM (SK-OV-3): 39.7%; growth at 10 µM (NCI/ADR-RES): -0.9%
24 | O=S(=O)(Nc1ccc(F)c(Cl)c1)c1ccc(-c2cnc(C3CC3)o2)cc1 | 23 | 0.26 | 73.7 | > 100 | 
25 | Cc1ccc(Cl)c(NS(=O)(=O)c2ccc(-c3cnc(C4CC4)o3)cc2)c1 | 25.3 | 0.0488 | 52.8 | > 100 | 
26 | Cc1ccc(NS(=O)(=O)c2ccc(-c3cnc(C4CC4)o3)cc2)cc1 | 33.1 |  |  |  | 

Row | SMILES | growth at 10 µM [1] [%] | GI50 (leukaemia cell line) [µM] | TGI (leukaemia cell line) [µM] | CC50 (leukaemia cell line) [µM] | other results
27 | Cc1cc(F)cc(NS(=O)(=O)c2ccc(-c3cnc(C4CC4)o3)cc2)c1 | 28.1 | 0.138 | 7.25 | 78 | 
28 | COc1ccc(NS(=O)(=O)c2ccc(-c3cnc(C4CC4)o3)cc2)cc1Cl | 32.6 |  |  |  | 
29 | O=S(=O)(Nc1ccc(I)cc1F)c1ccc(-c2cnc(C3CC3)o2)cc1 | 49.8 |  |  |  | 
30 | Cc1cc(Cl)ccc1NS(=O)(=O)c1ccc(-c2cnc(C3CC3)o2)cc1 | 24 | 0.277 | 54.7 | > 100 | 
31 | O=S(=O)(Nc1ccc(I)c(Cl)c1)c1ccc(-c2cnc(C3CC3)o2)cc1 | 29.8 | 1.01 | 19.6 | > 100 | 
32 | O=S(=O)(Nc1ccc2ccccc2c1)c1ccc(-c2cnc(C3CC3)o2)cc1 | 28.9 |  |  |  | growth at 10 µM (TK-10): 61.9%; growth at 10 µM (SR): 16.5%; growth at 10 µM (MOLT-4): 20.2%; growth at 10 µM (COLO 205): 1.5%; growth at 10 µM (SK-OV-3): 32.7%; growth at 10 µM (NCI/ADR-RES): 9.7%; GI50 [2]: 1.84 µM; LC50 (concentration causing 50% net cell kill) [2]: 78.6 µM
33 | O=S(=O)(Nc1cc(Cl)c(F)c(Cl)c1)c1ccc(-c2cnc(C3CC3)o2)cc1 | 37.1 |  |  |  | 
34 | O=S(=O)(Nc1cccc(Cl)c1)c1ccc(-c2cnc(C3CC3)o2)cc1 | 24.2 | 0.477 | 54.2 | > 100 | 
35 | O=S(=O)(Nc1ccc(F)cc1F)c1ccc(-c2cnc(C3CC3)o2)cc1 | 29.1 | 0.356 | 66 | > 100 | 
36 | O=S(=O)(Nc1ccc2c(c1)OC(F)(F)O2)c1ccc(-c2cnc(C3CC3)o2)cc1 | 41.7 |  |  |  | 
37 | O=S(=O)(Nc1ccc(C(F)(F)F)c(Cl)c1)c1ccc(-c2cnc(C3CC3)o2)cc1 | 77.1 |  |  |  | 
38 | CS(=O)(=O)CCNS(=O)(=O)c1ccc(-c2cnc(C3CC3)o2)cc1 | 94.1 |  |  |  | growth at 10 µM (TK-10): 99.1%; growth at 10 µM (SR): 80.3%; growth at 10 µM (MOLT-4): 94.1%; growth at 10 µM (COLO 205): 94.4%; growth at 10 µM (SK-OV-3): 105%; growth at 10 µM (NCI/ADR-RES): 94.1%
39 | O=S(=O)(Nc1cccc2ccccc12)c1ccc(-c2cnc(C3CC3)o2)cc1 | 28.6 | 0.0447 | 22.5 | > 100 | 
40 | O=S(=O)(Nc1ccc(N2CCOCC2)c(F)c1)c1ccc(-c2cnc(C3CC3)o2)cc1 | 92.2 |  |  |  | 
41 | O=S(=O)(Nc1cc(F)cc(Cl)c1)c1ccc(-c2cnc(C3CC3)o2)cc1 | 30.3 | 1.44 | 77.5 | > 100 | 
42 | O=S(=O)(Nc1ccc(OC(F)F)cc1)c1ccc(-c2cnc(C3CC3)o2)cc1 | 63.1 |  |  |  | 
43 | O=S(=O)(Nc1ccc(Cl)cc1Cl)c1ccc(-c2cnc(C3CC3)o2)cc1 | 25 | 0.481 | 74.5 | > 100 | 
44 | O=S(=O)(Nc1ccc(Cl)cc1)c1ccc(-c2cnc(C3CC3)o2)cc1 | 24.3 |  |  |  | growth at 10 µM (TK-10): 54.2%; growth at 10 µM (SR): 9.9%; growth at 10 µM (MOLT-4): 14.2%; growth at 10 µM (COLO 205): 9%; growth at 10 µM (SK-OV-3): 30.2%; growth at 10 µM (NCI/ADR-RES): 4.4%; GI50 [2]: 1.43 µM; LC50 (concentration causing 50% net cell kill) [2]: 57.4 µM
45 | O=S(=O)(Nc1ccc(Cl)c(C(F)(F)F)c1)c1ccc(-c2cnc(C3CC3)o2)cc1 | 11.4 |  |  |  | growth at 10 µM (TK-10): 3%; growth at 10 µM (SR): 3.5%; growth at 10 µM (MOLT-4): 5.2%; growth at 10 µM (COLO 205): 2.7%; growth at 10 µM (SK-OV-3): 0.8%; growth at 10 µM (NCI/ADR-RES): 2.9%; GI50 [2]: 0.655 µM; LC50 (concentration causing 50% net cell kill) [2]: 55.4 µM; IC50 [3]: 0.22 µM
46 | O=S(=O)(Nc1cc(Cl)ccc1Cl)c1ccc(-c2cnc(C3CC3)o2)cc1 | 34.6 | 1.02 | > 100 | > 100 | 
47 | O=C1COCCN1c1ccc(NS(=O)(=O)c2ccc(-c3cnc(C4CC4)o3)cc2)cc1 | 96.7 |  |  |  | 
48 | COc1ccc(NS(=O)(=O)c2ccc(-c3cnc(C4CC4)o3)cc2)cc1 | 56.1 |  |  |  | 
49 | O=S(=O)(Nc1ccc(C(F)(F)F)cc1)c1ccc(-c2cnc(C3CC3)o2)cc1 | 94.5 |  |  |  | 
50 | Cc1cc(NS(=O)(=O)c2ccc(-c3cnc(C4CC4)o3)cc2)ccc1Cl | 21.7 | 0.216 | 33.4 | > 100 | IC50 [3]: < 0.08 µM
51 | CC(=O)O[C@H]1C(=O)[C@@]2(C)[C@H]([C@H](OC(=O)c3ccccc3)[C@]3(O)C[C@H](OC(=O)[C@H](O)[C@@H](NC(=O)c4ccccc4)c4ccccc4)C(C)=C1C3(C)C)[C@]1(OC(C)=O)CO[C@@H]1C[C@@H]2O |  |  |  |  | inhibition (Sus scrofa): inactive
52 | O=S(=O)(Nc1ccc(Br)cc1)c1ccc(-c2cnc(C3CC3)o2)cc1 | 26.9 |  |  |  | growth at 10 µM (TK-10): 64.1%; growth at 10 µM (SR): 12.7%; growth at 10 µM (MOLT-4): 15.8%; growth at 10 µM (COLO 205): 23.9%; growth at 10 µM (SK-OV-3): 35.5%; growth at 10 µM (NCI/ADR-RES): -2.2%; GI50 [2]: 2.75 µM; LC50 (concentration causing 50% net cell kill) [2]: 54 µM
